From US20200297867A1, “SURFACE FUNCTIONALIZATION OF LIPOSOMES AND LIPOSOMAL SPHERICAL NUCLEIC ACIDS (SNAS)” (EXICURE,INC., priority 2016, published 2020)
Entries after “also recorded” stand apart in the source; their conditions may differ.

How the values were obtained:
hTLR4 = biological target: T1, hTLR4 (Homo sapiens, UniProt O00206+Q9Y6Y9); experiment: Experiment 4: activation of HEK hTLR4 cells pre- and post-sterile filtration, QuantiBlue; type: cell-based; conditions: post-sterile filtration through 0.22 μm PES filter; max 15 μM GLA, 1:3 serial dilution, 7 dilutions; 24 hours
T1 construct: expressed in transfected cells; host or cells: HEK huTLR4 (HEK hTLR4) cells
T1 sequence (O00206 24-839): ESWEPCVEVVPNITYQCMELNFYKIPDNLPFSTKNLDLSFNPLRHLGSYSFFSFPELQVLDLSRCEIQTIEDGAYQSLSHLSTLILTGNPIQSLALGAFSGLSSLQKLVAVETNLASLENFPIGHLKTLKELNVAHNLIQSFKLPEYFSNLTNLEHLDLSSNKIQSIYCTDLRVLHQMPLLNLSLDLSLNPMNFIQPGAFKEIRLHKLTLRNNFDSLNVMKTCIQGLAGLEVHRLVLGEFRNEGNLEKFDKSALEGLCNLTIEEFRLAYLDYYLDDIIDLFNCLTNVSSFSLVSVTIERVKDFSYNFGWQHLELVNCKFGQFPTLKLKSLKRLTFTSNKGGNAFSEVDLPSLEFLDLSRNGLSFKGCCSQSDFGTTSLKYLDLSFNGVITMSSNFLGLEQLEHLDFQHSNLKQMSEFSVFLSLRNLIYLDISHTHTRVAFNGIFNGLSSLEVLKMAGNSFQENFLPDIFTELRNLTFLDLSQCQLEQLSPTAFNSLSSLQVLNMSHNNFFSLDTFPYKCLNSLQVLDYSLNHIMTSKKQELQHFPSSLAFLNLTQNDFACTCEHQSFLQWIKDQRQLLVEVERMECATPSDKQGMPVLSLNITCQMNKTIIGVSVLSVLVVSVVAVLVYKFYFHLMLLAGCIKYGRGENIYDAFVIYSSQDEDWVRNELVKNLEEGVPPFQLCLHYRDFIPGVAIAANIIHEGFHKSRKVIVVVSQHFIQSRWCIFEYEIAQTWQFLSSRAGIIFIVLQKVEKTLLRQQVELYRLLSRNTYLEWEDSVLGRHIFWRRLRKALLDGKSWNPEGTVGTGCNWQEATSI
T1 sequence (Q9Y6Y9 17-160 limits assumed): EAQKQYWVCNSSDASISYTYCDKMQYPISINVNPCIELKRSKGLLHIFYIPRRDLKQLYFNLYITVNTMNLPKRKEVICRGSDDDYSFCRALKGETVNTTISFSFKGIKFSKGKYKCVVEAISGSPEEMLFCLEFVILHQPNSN
Protocol: FIG. 4. […] HEK hTLR4 cells were treated with 15 μM of GLA (for each compound tested) with a 1:3 serial dilution for 7 dilutions.
GLA (Avanti Polar Lipids) was resuspended in dimethylsulfoxide (DMSO) at 1 mg/mL. GLA in DMSO was mixed with an aqueous solution of liposomes (L-GLA) or PBS (GLA alone) such that the final DMSO concentration was 2%. DMSO is miscible in aqueous solutions, and allows GLA to condense on the surface of SNAs as the organic solution is diluted. Modulation of GLA functionalized to the surface of liposomes can be achieved by adjusting the ratio of GLA to liposome. The DMSO was removed from the liposomal solution by diafiltration using tangential-flow filtration (TFF) with a hollow fiber filter (750 kDa cut-off). These liposomes which have been surface functionalized with GLA (with a loading of 50 molecules/liposome) may then be further surface modified with other molecules. L-GLA or GLA alone was then sterile filtered through a 0.22 μm PES sterile syringe filter (VWR) to remove any non-functionalized GLA or GLA aggregates. […]
QuantiBlue detection media was purchased from Invivogen. […] After development of color using the standard curve as a reference, the plate was read using a fluorescence plate reader (Synergy 4) at an absorbance of 650 nm.

[1] = Sterile filtration through 0.22 μm PES syringe filter; type: physicochemical; conditions: 0.22 μm sterile filter; inferred from HEK hTLR4 activity after filtration
Protocol: GLA (Avanti Polar Lipids) was resuspended in dimethylsulfoxide (DMSO) at 1 mg/mL. GLA in DMSO was mixed with an aqueous solution of liposomes (L-GLA) or PBS (GLA alone) such that the final DMSO concentration was 2%. DMSO is miscible in aqueous solutions, and allows GLA to condense on the surface of SNAs as the organic solution is diluted. Modulation of GLA functionalized to the surface of liposomes can be achieved by adjusting the ratio of GLA to liposome. The DMSO was removed from the liposomal solution by diafiltration using tangential-flow filtration (TFF) with a hollow fiber filter (750 kDa cut-off). These liposomes which have been surface functionalized with GLA (with a loading of 50 molecules/liposome) may then be further surface modified with other molecules. L-GLA or GLA alone was then sterile filtered through a 0.22 μm PES sterile syringe filter (VWR) to remove any non-functionalized GLA or GLA aggregates.
GLA alone was prepared using the same method used to prepare L-GLA but without the presence of liposomes. Free or unbound GLA will aggregate and cannot pass through a sterile filter.

CCCCCCCCCCCCCC(=O)O[C@H](CCCCCCCCCCC)CC(=O)N[C@H]1[C@H](OC[C@H]2O[C@H](O)[C@H](NC(=O)C[C@H](O)CCCCCCCCCCC)[C@@H](OC(=O)C[C@H](O)CCCCCCCCCCC)[C@@H]2O)O[C@H](CO)[C@@H](OP(=O)(O)O)[C@@H]1OC(=O)C[C@@H](CCCCCCCCCCC)OC(=O)CCCCCCCCCCCCC.N [GLA alone, glycopyranoside lipid A]
activation of HEK hTLR4 cells (hTLR4): failed to activate; also recorded: does not | passage through sterile filter [1]: removed by sterile filtration
